This note sets out measurements from article PMC4765733 (Journal of medicinal chemistry, 2015).

One experiment concerns HIV-1LAI. Kind of experiment: Antiviral MTT assay, MT-2 cells exposed to HIV-1LAI. In kind it is cell-based. Particulars: Human immunodeficiency virus 1, MT2, read-out: IC50 (antiviral activity). Background: Tetrazolium assays rely on reduction of a dye to a coloured formazan, in cell work by metabolically active cells.
For experiment [1], the system named is HIV-1ERS104pre (wild type). Nature of the experiment: Antiviral p24 Gag assay in PHA-PBMs, wild-type HIV-1ERS104pre. In kind it is cell-based.

For orientation: IC50 means the concentration that gives 50% inhibition.

Structures are written as SMILES.

For `CC(C)CN(C[C@@H](O)[C@H](Cc1ccccc1)NC(=O)O[C@H]1CO[C@H]2OCC[C@H]21)S(=O)(=O)c1ccc(N)cc1` [Darunavir], the IC50 with HIV-1LAI was determined as 3 nM.

As for `COc1ccc(S(=O)(=O)N(CC(C)C)C[C@@H](O)[C@H](Cc2cccc(-c3ccccc3OC)c2)NC(=O)O[C@H]2CO[C@H]3OCC[C@H]32)cc1` [Inhibitor 21e, (3R,3aS,6aR)-hexahydrofuro[2,3-b]furan-3-yl-((2S,3R)-3-hydroxy-4-(N-isobutyl-4-methoxyphenylsulfonamido)-1-(2'-methoxy-[1,1'-biphenyl]-3-yl)butan-2-yl)carbamate], in experiment [1], the “EC50 fold better than APV” value is about 10 fold.
